Results reported in patent US20100222421A1, “Usage of Baicalein in the Preparation of a Pharmaceutical Composition for the Treatment of Traumatic Brain Injury” (National Defense Medical Center, priority 2009, published 2010).

Tested on: IL-6 mRNA
Assay: Real-time quantitative RT-PCR, IL-6 mRNA after CCI injury
Format: in vivo, rat
Details: single-dose 30 mg kg^-1 i.p.; ipsilateral cortex, 6 h after injury; P<0.05
Method: A previously described CCI injury procedure was utilized (Chen et al., 2003). Male Sprague-Dawley rats, which have body weight of 250-300 g, were anaesthetized with sodium pentobarbital (i.p.; 50 mgkg^−1; Rhone Merieux, Harlow, UK) and placed in a stereotaxic frame. A 5-mm craniotomy was performed over the left parietal cortex, centered on the coronal suture and 3 mm lateral to the sagittal suture. Considerable care was taken to avoid injury to the underlying dura. Injury was made using a pneumatic piston with a rounded metal tip (2.5 mm diameter) that was angled 22.5° C. to the vertical so that the tip was perpendicular with the brain surface at the centre of the craniotomy. A velocity of 4 ms^−1 and a deformation depth 2 mm below the dura were used. […] Body temperature was monitored throughout the surgery by a rectal probe; temperature was maintained at 37.0±0.5° C. using a heated pad. […] Testing after injury was as follows: (1) real-time quantitative RT-PCR analysis for TNF-α, IL-1β and IL-6 mRNA expression at 6 h post-injury (n=7 for each group); (2) FluoroJade B (FJB) staining, TNF-α, IL-1β and IL-6 immunohistochemistry, as well as ELISA at 24 h post-injury to assess degenerative neurons and to determine cytokine expression (n=7 for each group). […] Approximately 50 mg tissue was collected from the ipsilateral (injured) hemisphere and processed for real-time quantitative RT-PCR. […]

## O=c1cc(-c2ccccc2)oc2cc(O)c(O)c(O)c12 [baicalein]
  IL-6 mRNA level, % of level in vehicle-treated injured rats: 43.6%
